Where no end group is shown, it is not given here.
Legend:
Format in all cases: cell-based
[1] = tested on: macrophages RAW264.7; assay: Transwell migration assay, LPS-induced macrophage RAW264.7 migration; settings: 800 μg/mL, 1 μg/mL LPS
Description: In this example, a leech zymolyte HE was firstly prepared from […] by enzymolysis. […] Then, HE was separated and purified by chromatography on QSepharose FF strong basic anion exchange column, and chromatography on Superdex30, Superdexpeptide and G10 gel column, and Transwell assay was done to track the activity. Finally leech polypeptide HE4-1 having activity to inhibit the migration of macrophages RAW264.7 was obtained. Transwell migration assay was used to detect the activity of HE1-HE6 in inhibiting the macrophage migration. […] Transwell assay was used to detect the inhibition of HE-D on the migration activity of macrophages RAW264.7. The experiments were divided into five groups, including a blank control group, an LPS model group and 200, 400, 800 μg/mL HE-D groups.

[2] = tested on: macrophage RAW264.7; assay: Lysozyme activity assay; settings: 0-800 μg/mL
Protocol: (§1) The effects of HE-D on the phagocytosis ability and lysozyme activity of macrophage RAW264.7 were measured by neutral red phagocytosis test and lysozyme activity assay.

[3] = tested on: JNK; assay: Western-blot of JNK signaling pathway in LPS-induced RAW264.7 cells; settings: RAW264.7 induced with LPS
Protocol: (§2) The mechanism of HE-D inhibiting macrophages RAW264.7 was tested by Western-blot.

[4] = tested on: p38; assay: Western-blot of p38 signaling pathway in LPS-induced RAW264.7 cells; settings: RAW264.7 induced with LPS
Protocol: as §2

[5] = tested on: IL-6; assay: ELISA of IL-6 secretion by macrophages RAW264.7; settings: 0-800 μg/mL
Description: (§3) The effect of HE-D on the secretion of IL-1, IL-6, IL-12, and TNF-α by macrophages RAW264.7 was detected by ELISA.

[6] = tested on: IL-12; assay: ELISA of IL-12 secretion by macrophages RAW264.7; settings: 0-800 μg/mL
Description: as §3

[7] = tested on: macrophage RAW264.7; assay: Neutral red phagocytosis test; settings: 0-800 μg/mL
Protocol: as §1

[8] = tested on: IL-1; assay: ELISA of IL-1 secretion by macrophages RAW264.7; settings: 0-800 μg/mL
Description: as §3

[9] = tested on: TNF-α; assay: ELISA of TNF-α secretion by macrophages RAW264.7; settings: 400 and 800 μg/mL
Description: as §3

Sequence | inhibition rate of LPS-induced migration of macrophages RAW264.7 [1] | lysozyme activity of macrophages RAW264.7 [2] | LPS-induced increase in expression level of phosphorylated JNK protein ([3]; 800 μg/mL) | expression of JNK protein [3] | LPS-induced increase in expression level of phosphorylated p38 protein ([4]; 800 μg/mL) | expression of total p38 protein [4] | secretion of IL-6 [5] | secretion of IL-12 [6] | phagocytosis ability of macrophages RAW264.7 [7] | secretion of IL-1 [8] | promotion effect on secretion of TNF-α [9] | secretion of TNF-α [9]
EAGSAKELEGDPVAG [HE4-1, leech polypeptide isolated and purified from HE4 by Superdex30, Superdexpeptide and G10 gel chromatography] | 15.2% | – | – | – | – | – | – | – | – | – | – | –
EAGSAKELEGDPVAG [HE-D] | 14.9% | no obvious effect | significantly inhibit the increase | no significant effect | significantly inhibit the increase | no significant effect | no significant effect | no significant effect | no obvious effect | no significant effect | 11.4% | promote the secretion
